# Earlier results in US6068976A, “Modulators of ob gene and screening methods therefor” (priority 1996, dated 2000).
# Details: in vivo; cited from earlier work
structure (smiles),measurement,value
CC(COc1ccccc1)N(CCCl)Cc1ccccc1 (stereo not shown) [phenoxybenzamide],weight gain and fat accumulation,prevents weight gain and fat accumulation
